Results taken from patent publication US8889688B2, “Piperazines as antimalarial agents” (Actelion Pharmaceuticals Ltd., priority 2011, dated 2014).
Where two headings read alike, the source gives them in different places.

Tested on: erythrocytic stages of P. falciparum NF54
Assay: Plasmodium falciparum in vitro assay, [3H] hypoxanthine incorporation
Assay type: cell-based
Details: P. falciparum NF54 in human red blood cells, 48 h + 24 h incubation
Procedure: In Vitro Antimalarial Activity: Plasmodium falciparum In Vitro Assay In vitro activity against erythrocytic stages of P. falciparum in human red blood cells is determined using a [^3H] hypoxanthine incorporation assay. […] Thereafter, the parasite cultures incubated in screening medium containing washed human red blood cells at 2.5% hematocrit (0.3% parasitemia) are added to the serially diluted compounds and incubated in a humidifying atmosphere at 37° C., 4% CO2, 3% O2, and 93% N2. After 48 h, [^3H] hypoxanthine (0.5 μCi) is added to each well of a plate. The plates are incubated for a further 24 h under the same conditions then harvested with a Betaplate cell harvester (Wallac) and washed with distilled water. The dried filters are inserted into a plastic foil with 10 mL of scintillation fluid, and counted in a Betaplate liquid scintillation counter. IC50 values are calculated from sigmoidal inhibition curves using Microsoft Excel.

[1] = Plasmodium falciparum, Erythrocyte, 72 h, screening medium with Albumax (5 g/L), read-out: IC50 on NF54 (with Albumax)
[2] = Plasmodium falciparum, Erythrocyte, 72 h, screening medium with human serum (50% final concentration), read-out: IC50 on NF54 (with 50% Serum)

SMILES	IC50 [1]	IC50 [2]	IC50 (screening medium with Albumax (5 g/L), read-out: IC50 on NF54 (with Albumax))	IC50 (screening medium with human serum (50% final concentration), read-out: IC50 on NF54 (with 50% Serum))
CC(=O)N1CCN(c2ccc(CN(C(=O)C=Cc3ccc(C(F)(F)F)nc3)[C@@H](Cc3ccccc3)C(=O)N3CCN(Cc4ccc(N(C)CCO)cc4)CC3)cc2)CC1 [Example 51, (S)-N-[4-(4-Acetyl-piperazin-1-yl)-benzyl]-N-[1-benzyl-2-(4-{4-[(2-hydroxy-ethyl)-methyl-amino]-benzyl}-piperazin-1-yl)-2-oxo-ethyl]-3-(6-trifluoromethyl-pyridin-3-yl)-acrylamide]	10.7 nM	29.8 nM		
COc1ccc(C=CC(=O)N(Cc2ccc(N3CCN(C(C)=O)CC3)cc2)[C@@H](Cc2ccccc2)C(=O)N2CCN(Cc3ccc(N(C)C)cc3)CC2)cn1 [Example 13, (S)-N-[4-(4-Acetyl-piperazin-1-yl)-benzyl]-N-{1-benzyl-2-[4-(4-dimethylamino-benzyl)-piperazin-1-yl]-2-oxo-ethyl}-3-(6-methoxy-pyridin-3-yl)-acrylamide]	12 nM	46 nM		
CC(=O)N1CCN(c2ccc(CN(C(=O)C=Cc3ccc(C(F)(F)F)cc3)[C@@H](Cc3ccccc3)C(=O)N3CCN(Cc4ccc(N(C)C)cc4)CC3)cc2)CC1 [Example 11, (S)-N-[4-(4-Acetyl-piperazin-1-yl)-benzyl]-N-{1-benzyl-2-[4-(4-dimethylamino-benzyl)-piperazin-1-yl]-2-oxo-ethyl}-3-(4-trifluoromethyl-phenyl)-acrylamide]	4 nM	21 nM		
COc1ccc(CN2CCN(C(=O)[C@H](Cc3ccccc3)N(Cc3ccc(N4CCN(C(C)=O)CC4)cc3)C(=O)C=Cc3ccc(C(F)(F)F)cc3)CC2)cc1 [Example 63, (S)-N-[4-(4-Acetyl-piperazin-1-yl)-benzyl]-N-{1-benzyl-2-[4-(4-methoxy-benzyl)-piperazin-1-yl]-2-oxo-ethyl}-3-(4-trifluoromethyl-phenyl)-acrylamide]	3.2 nM	17.8 nM		
CC(=O)N1CCN(c2ccc(CN(C(=O)C=Cc3ccc(C(F)(F)F)nc3)[C@@H](Cc3ccccc3)C(=O)N3CCN(Cc4ccc(N(C)C)cc4)CC3)cc2)CC1 [Example 12, (S)-N-[4-(4-Acetyl-piperazin-1-yl)-benzyl]-N-{1-benzyl-2-[4-(4-dimethylamino-benzyl)-piperazin-1-yl]-2-oxo-ethyl}-3-(6-trifluoromethyl-pyridin-3-yl)-acrylamide]	17 nM	74 nM		
CC(=O)Nc1ccc(C=CC(=O)N(Cc2ccc(N3CCN(C(C)=O)CC3)cc2)[C@@H](Cc2ccccc2)C(=O)N2CCN(Cc3ccc(N(C)C)cc3)CC2)cc1 [Example 17, (S)-3-(4-Acetylamino-phenyl)-N-[4-(4-acetyl-perazin-1-yl)-benzyl]-N-{1-benzyl-2-[4-(4-dimethylamino-benzyl)-piperazin-1-yl]-2-oxo-ethyl}-acrylamide]			4.3 nM	39 nM
CC(=O)N1CCN(c2ccc(CN(C(=O)C=Cc3ccc(S(C)(=O)=O)cc3)[C@@H](Cc3ccccc3)C(=O)N3CCN(Cc4ccc(C#N)cc4)CC3)cc2)CC1 [Example 26, (S)-N-[4-(4-Acetyl-piperazin-1-yl)-benzyl]-N-{1-benzyl-2-[4-(4-cyano-benzyl)-piperazin-1-yl]-2-oxo-ethyl}-3-(4-methanesulfonyl-phenyl)-acrylamide]	18 nM	33 nM		

Further lines, with some results ahead:

IC50 [1]	IC50 [2]	SMILES	IC50 (screening medium with Albumax (5 g/L), read-out: IC50 on NF54 (with Albumax))	IC50 (screening medium with human serum (50% final concentration), read-out: IC50 on NF54 (with 50% Serum))
10 nM	91 nM	CC(=O)N1CCN(c2ccc(CN(C(=O)C=Cc3ccc(F)cc3)[C@@H](Cc3ccccc3)C(=O)N3CCN(Cc4ccc(N(C)C)cc4)CC3)cc2)CC1 [Example 72, (S)-N-[4-(4-Acetyl-piperazin-1-yl)benzyl]-N-{1-(4-(4-(dimethylamino)benzyl)piperazin-1-yl)-1-oxo-3-phenylpropan-2-yl}-3-(4-fluorophenyl)acrylamide]		
24.6 nM	113 nM	CC(=O)N1CCN(c2ccc(CN(C(=O)C=Cc3ccccc3)[C@@H](Cc3ccccc3)C(=O)N3CCN(Cc4ccc(N(C)C)cc4)CC3)cc2)CC1 [Example 66, (S)-N-[4-(4-Acetyl-piperazin-1-yl)benzyl]-N-{1-(4-(4-(dimethylamino)benzyl)piperazin-1-yl)-1-oxo-3-phenylpropan-2-yl}cinnamamide]		
18 nM	62 nM	CC(=O)N1CCN(c2ccc(CN(C(=O)C=Cc3ccc(C#N)cc3)[C@@H](Cc3ccccc3)C(=O)N3CCN(Cc4ccc(N(C)C)cc4)CC3)cc2)CC1 [Example 71, (S)-N-[4-(4-Acetyl-piperazin-1-yl)benzyl]-3-(4-cyanophenyl)-N-{1-(4-(4-(dimethylamino)benzyl)piperazin-1-yl)-1-oxo-3-phenylpropan-2-yl}acrylamide]		
2.8 nM	14 nM	CC(=O)N1CCN(c2ccc(CN(C(=O)C=Cc3ccc(C(F)(F)F)cc3)[C@@H](Cc3ccccc3)C(=O)N3CCN(Cc4ccc(OC(C)C)cc4)CC3)cc2)CC1 [Example 65, (S)-N-[4-(4-Acetyl-piperazin-1-yl)-benzyl]-N-{1-benzyl-2-[4-(4-isopropoxy-benzyl)-piperazin-1-yl]-2-oxo-ethyl}-3-(4-trifluoromethyl-phenyl)-acrylamide]		
3.5 nM	43 nM	CC(=O)N1CCN(c2ccc(CN(C(=O)C=Cc3ccc(C(F)(F)F)cc3)[C@@H](Cc3ccccc3)C(=O)N3CCN(Cc4ccc([N+](=O)[O-])cc4)CC3)cc2)CC1 [Example 64, (S)-N-[4-(4-Acetyl-piperazin-1-yl)-benzyl]-N-{1-benzyl-2-[4-(4-nitro-benzyl)-piperazin-1-yl]-2-oxo-ethyl}-3-(4-trifluoromethyl-phenyl)-acrylamide]		
< 3.1 nM	17.5 nM	CC(=O)N1CCN(c2ccc(CN(C(=O)C=Cc3ccc(C)cc3)[C@@H](Cc3ccccc3)C(=O)N3CCN(Cc4ccc(N(C)C)cc4)CC3)cc2)CC1 [Example 67, (S)-N-[4-(4-Acetyl-piperazin-1-yl)benzyl]-N-{1-[4-(4-(dimethylamino)benzyl)piperazin-1-yl]-1-oxo-3-phenylpropan-2-yl}-3-(p-tolyl)acrylamide]		
< 3.1 nM	17 nM	COc1ccc(C=CC(=O)N(Cc2ccc(N3CCN(C(C)=O)CC3)cc2)[C@@H](Cc2ccccc2)C(=O)N2CCN(Cc3ccc(N(C)C)cc3)CC2)cc1 [Example 69, (S)-N-[4-(4-Acetyl-piperazin-1-yl)benzyl]-N-{1-(4-(4-(dimethylamino)benzyl)piperazin-1-yl)-1-oxo-3-phenylpropan-2-yl}-3-(4-methoxyphenyl)acrylamide]		
0.7 nM	8 nM	CCCc1ccc(C=CC(=O)N(Cc2ccc(N3CCN(C(C)=O)CC3)cc2)[C@@H](Cc2ccccc2)C(=O)N2CCN(Cc3ccc(N(C)C)cc3)CC2)cc1 [Example 68, (S)-N-[4-(4-Acetyl-piperazin-1-yl)benzyl]-N-{1-(4-(4-(dimethylamino)benzyl)piperazin-1-yl)-1-oxo-3-phenylpropan-2-yl}-3-(4-propylphenyl)acrylamide]		
3.3 nM	26 nM	CC(=O)N1CCN(c2ccc(CN(C(=O)C=Cc3ccc(Cl)cc3)[C@@H](Cc3ccccc3)C(=O)N3CCN(Cc4ccc(N(C)C)cc4)CC3)cc2)CC1 [Example 73, (S)-N-[4-(4-Acetyl-piperazin-1-yl)benzyl]-3-(4-chlorophenyl)-N-{1-(4-(4-(dimethylamino)benzyl)piperazin-1-yl)-1-oxo-3-phenylpropan-2-yl}acrylamide]		
